In ChEMBL document CHEMBL5241075, “Advancement of chimeric hybrid drugs to cure malaria infection: An overview with special emphasis on endoperoxide pharmacophores” (Eur J Med Chem, 2021):
Converted amounts (≈) assume the structure as drawn.

Tests used:
[1] = tested on: Plasmodium berghei; experiment: Antiplasmodial activity against Plasmodium berghei N infected in sc dosed mouse assessed as reduction in parasitemia; format: functional
[2] = tested on: Plasmodium falciparum; experiment: Antiplasmodial activity against Plasmodium falciparum NF54; format: functional, organism-based
[3] = tested on: Plasmodium falciparum; experiment: Antiplasmodial activity against Plasmodium falciparum 3D7; format: functional, organism-based
[4] = tested on: Plasmodium falciparum; experiment: Antiplasmodial activity against Plasmodium falciparum K1; format: functional, organism-based; details: Plasmodium falciparum, K1
[5] = tested on: Plasmodium falciparum; experiment: Antiplasmodial activity against Plasmodium falciparum DD2; format: functional, organism-based
[6] = tested on: Plasmodium berghei; experiment: Antiplasmodial activity against Plasmodium berghei infected in mouse assessed as reduction in parasitemia at 65 mg/kg, sc measured after 4 days post treatment relative to control; format: functional; set-up: scale not given: the % may be the effect or the level left; details: time 4 day
[7] = tested on: Plasmodium berghei; experiment: Antiplasmodial activity against Plasmodium berghei infected in mouse assessed as reduction in parasitemia at 35 microg/kg, sc measured after 4 days post treatment relative to control; format: functional; set-up: scale not given: the % may be the effect or the level left; details: dose 35 µg/kg, time 4 day
[8] = tested on: Plasmodium berghei; experiment: Antiplasmodial activity against Plasmodium berghei infected in mouse assessed as reduction in parasitemia by measuring survival rate at 35 microg/kg, sc measured after 41 days of post infection relative to control; format: functional; details: 984 h, dose 35 µg/kg, time 41 day
[9] = tested on: Plasmodium falciparum; experiment: Antiplasmodial activity against Plasmodium falciparum W2; format: functional, organism-based
[10] = tested on: Plasmodium falciparum; experiment: Antiplasmodial activity against Plasmodium falciparum D6; format: functional, organism-based
[11] = tested on: Plasmodium falciparum; experiment: Selectivity ratio of IC50 for antiplasmodial activity against Plasmodium falciparum W2 to IC50 for antiplasmodial activity against Plasmodium falciparum D6; format: functional
[12] = tested on: Plasmodium falciparum; experiment: Antimalarial activity against chloroquine resistant Plasmodium falciparum FcB1 Colombia; format: functional, organism-based
[13] = tested on: Plasmodium falciparum; experiment: Antimalarial activity against chloroquine resistant Plasmodium falciparum FcR3 Gambia; format: functional, organism-based
[14] = tested on: Plasmodium falciparum; experiment: Antimalarial activity against chloroquine resistant Plasmodium falciparum PaloAlto; format: functional, organism-based
[15] = tested on: Plasmodium falciparum; experiment: Antimalarial activity against chloroquine resistant Plasmodium falciparum W2; format: functional, organism-based
[16] = tested on: Plasmodium falciparum; experiment: Antimalarial activity against chloroquine resistant Plasmodium falciparum FcM29 Cameron; format: functional, organism-based
[17] = tested on: Plasmodium falciparum; experiment: Antimalarial activity against chloroquine sensitive Plasmodium falciparum D6; format: functional, organism-based
[18] = tested on: Plasmodium falciparum; experiment: Antimalarial activity against chloroquine sensitive Plasmodium falciparum F32; format: functional, organism-based
[19] = tested on: Plasmodium vinckei; experiment: Antimalarial activity against chloroquine resistant Plasmodium vinckei infected in po dosed swiss mouse assessed as reduction in parasitemia; format: functional
[20] = tested on: Plasmodium vinckei petteri; experiment: Antimalarial activity against chloroquine sensitive Plasmodium vinckei petteri infected in po dosed swiss mouse assessed as reduction in parasitemia; format: functional
[21] = tested on: Plasmodium falciparum; experiment: Antimalarial activity against erythrocytic stage chloroquine sensitive Plasmodium falciparum W2 infected in mouse assessed as reduction in parasitemia at 32 mg/kg/day, po qd measured after 4 days by Giemsa staining based analysis relative to control; format: functional; set-up: scale not given: the % may be the effect or the level left; details: time 4 day
[22] = tested on: Plasmodium falciparum; experiment: Antimalarial activity against erythrocytic stage chloroquine sensitive Plasmodium falciparum 3D7 infected in mouse assessed as reduction in parasitemia at 63 mg/kg/day, po qd measured after 4 days by Giemsa staining based analysis relative to control; format: functional; set-up: scale not given: the % may be the effect or the level left; details: time 4 day
[23] = tested on: Plasmodium falciparum; experiment: Antimalarial activity against erythrocytic stage chloroquine sensitive Plasmodium falciparum W2 infected in mouse assessed as reduction in parasitemia at 63 mg/kg/day, po qd measured after 4 days by Giemsa staining based analysis; format: functional; set-up: scale not given: the % may be the effect or the level left; details: time 4 day
[24] = tested on: Plasmodium falciparum; experiment: Antiplasmodial activity against chloroquine resistant Plasmodium falciparum by HRP2 ELISA analysis; format: functional, organism-based
[25] = tested on: Plasmodium berghei; experiment: Antimalarial activity against liver stage Plasmodium berghei; format: functional, organism-based
[26] = tested on: Caco-2; experiment: Cytotoxicity against human Caco-2 cells assessed as reduction in cell viability; format: functional
[27] = tested on: Plasmodium yoelii; experiment: Antimalarial activity against Plasmodium yoelii infected in swiss mouse assessed as reduction in parasitemia at 96 mg/kg, po relative to control; format: functional; set-up: scale not given: the % may be the effect or the level left
[28] = tested on: Plasmodium chabaudi; experiment: Antiplasmodial activity against Plasmodium chabaudi infected in mouse assessed as survival rate relative to control; format: functional
[29] = tested on: Plasmodium falciparum; experiment: Antiplasmodial activity against Plasmodium falciparum gametocytes assessed as inhibition of gametocyte activation by [3H]hypoxanthine incorporation assay; format: functional, organism-based
[30] = tested on: Plasmodium falciparum; experiment: Antiplasmodial activity against Plasmodium falciparum gametocytes by [3H]hypoxanthine incorporation assay; format: functional, organism-based
[31] = tested on: Plasmodium falciparum; experiment: Antiplasmodial activity against Plasmodium falciparum TM91C235; format: functional, organism-based
[32] = tested on: Plasmodium falciparum; experiment: Antiplasmodial activity against Plasmodium falciparum; format: functional, organism-based
[33] = tested on: Plasmodium falciparum; experiment: Antimalarial activity against chloroquine resistant Plasmodium falciparum FcB1; format: functional, organism-based
[34] = tested on: Plasmodium falciparum; experiment: Antiplasmodial activity against Plasmodium falciparum FcM29; format: functional, organism-based
[35] = tested on: Plasmodium falciparum; experiment: Potency index, ratio of artesunate IC50 to test compound IC50 for antiplasmodial activity against Plasmodium falciparum gametocytes by [3H]hypoxanthine incorporation assay; format: functional
[36] = tested on: Plasmodium falciparum; experiment: Potency index, ratio of mefloquine IC50 to test compound IC50 for antiplasmodial activity against Plasmodium falciparum gametocytes by [3H]hypoxanthine incorporation assay; format: functional
[37] = read-out: ED50 (the source's name)

**Q.** How did the ED50 [1] turn out when `C[C@@H]1CC[C@H]2[C@@H](C)C(c3cccn3C)O[C@@H]3O[C@]4(C)CC[C@@H]1[C@]32OO4` (stereo not given in full) was run?
**A.** 0.7 mg/kg

**Q.** And the IC50 [2]?
**A.** 0.0046 µM

**Q.** How did the EC50 ([3]; read-out: EC50) turn out when `C[C@H]1[C@H](OC(=O)CCC(=O)CCNc2ccnc3cc(Cl)ccc23)O[C@@H]2O[C@]3(C)CC[C@H]4[C@H](C)CC[C@@H]1[C@@]24OO3` was run?
**A.** 0.0045 µM

**Q.** And the EC50 ([4]; read-out: EC50)?
**A.** 0.0017 µM

**Q.** What about the EC50 [5] of the same compound?
**A.** 0.0023 µM

**Q.** And the Activity [6]?
**A.** >99%

**Q.** And the Activity [7]?
**A.** 95.2%

**Q.** What about the survival at 0.035 mg/kg [8] of the same compound?
**A.** 80%

**Q.** Which IC50 [9] does the source give for `Cc1cccc(C)c1Nc1nc(OCc2cn(CCCNc3ccnc4cc(Cl)ccc34)nn2)nc(N(C)C)n1` here?
**A.** 0.73 µM

**Q.** What about the IC50 [10] of the same compound?
**A.** 0.58 µM

**Q.** What about the “Ratio IC50” value [11] of the same compound?
**A.** >11.1

**Q.** Which results are given for `CC1(C)COC(C2CCC(NC3CCC(Nc4ccnc5cc(Cl)ccc45)CC3)CC2)OO1` (stereo not given)?
**A.** IC50 [12]: 0.024 µM; IC50 [13]: 0.012 µM; IC50 [14]: 0.015 µM; IC50 [15]: 0.015 µM; IC50 [16]: 0.01 µM; IC50 [17]: 0.007 µM; IC50 [18]: 0.013 µM; ED100 [19]: 30 mg/kg/day; ED100 [20]: 32 mg/kg/day; Activity [21]: 77%; Activity [22]: 100%; Activity [23]: 96%; IC50 [24]: 0.0198 µM; IC90 [24]: 0.0293 µM; IC99 [24]: 0.0448 µM; MIC [24]: 0.0472 µM (≈ 0.0224 µg/mL)

**Q.** `COc1cc(NC(C)CCCNC(=O)C2CCC3(CC2)OOC2(OO3)C3CC4CC(C3)CC2C4)c2nccc(Cl)c2c1` (stereo not given) was tested. Which EC50 [9] did it give?
**A.** 0.075 µM

**Q.** And the EC50 [25]?
**A.** 2.81 µM

**Q.** What about the CC50 [26] of the same compound?
**A.** > 50000 µM

**Q.** Which Activity [27] does the source give for `C=C(c1ccccc1)C1COC2(CCC(NCCCNc3ccnc4cc(Cl)ccc34)CC2)OO1` (stereo not given) here?
**A.** 89%

**Q.** With `C[C@@H]1CC[C@H]2[C@@H](C)C(CCc3ccc(C(=O)O)cc3)O[C@@H]3O[C@]4(C)CC[C@@H]1[C@]32OO4` (stereo not given in full) as the compound, how does the EC50 [3, 37] read?
**A.** 1.1 ng/mL

**Q.** And the EC50 [4, 37]?
**A.** 0.6 ng/mL

**Q.** What about the Survival [28] of the same compound?
**A.** 100%

**Q.** `C=C(c1ccccc1)C1COC2(CCC(NCCNc3ccnc4cc(Cl)ccc34)CC2)OO1` (stereo not given) was tested. Which Activity [27] did it give?
**A.** 89%

**Q.** How did the IC90 [9] turn out when `O[C@@H](c1cc(C(F)(F)F)nc2c(C(F)(F)F)cccc12)[C@H]1CCCCN1` [(S,R)-MEFLOQUINE] was run?
**A.** 0.64 µM

**Q.** What about the IC50 [29] of the same compound?
**A.** 5600 µM

**Q.** And the IC50 [30]?
**A.** 16500 µM

**Q.** And the IC50 [31]?
**A.** 0.13 µM

**Q.** What about the IC90 [31] of the same compound?
**A.** 0.264 µM

**Q.** Which IC50 [32] does the source give for `CC(C)C1=C[C@H]2OC3(CCC(NCCNc4ccnc5cc(Cl)ccc45)CC3)OO[C@@]2(C)CC1` (stereo not given in full) here?
**A.** 0.009 µM

**Q.** And the IC50 [33]?
**A.** 0.006 µM

**Q.** And the IC50 [34]?
**A.** 0.021 µM

**Q.** How did the EC50 [9] turn out when `COc1cc(NC(C)CCCNC(=O)C2CCC3(CC2)OOC2(OO3)C3CC4CC(C3)CC2C4)c2nccc(Br)c2c1` (stereo not given) was run?
**A.** 0.061 µM

**Q.** And the EC50 [25]?
**A.** 4.44 µM

**Q.** And the CC50 [26]?
**A.** > 50000 µM

**Q.** How did the Ratio [35] turn out when `C[C@H]1[C@@H](OC(=O)CCC(=O)O)O[C@@H]2C[C@@]3(C)CC[C@H]4[C@H](C)CC[C@@H]1[C@@]24OO3.FC(F)(F)c1ccc2c(CC3CCCCN3)c3cccc(C(F)(F)F)c3nc2c1` (stereo not given) was run?
**A.** 15

**Q.** And the Ratio [36]?
**A.** 280

**Q.** And the IC50 [29]?
**A.** 20 µM

**Q.** What about the IC50 [30] of the same compound?
**A.** 4600 µM
